Experimental data: patent US20250243488A1, “METHODS OF MODULATING PROGRANULIN EXPRESSION USING ANTISENSE OLIGONUCLEOTIDES TARGETING REGULATORY RNAS” (Camp4 Therapeutics Corporation, priority 2022, published 2025)
Oligonucleotides are written 5' to 3', each unit as a sugar letter and its base; * is a phosphorothioate linkage, no mark a phosphodiester; rarer units and linkages stand in square brackets, end groups in braces. Plain capitals give the bases only. e = 2'-O-(2-methoxyethyl) (MOE); l = locked nucleic acid (LNA); [5mC] = 5-methylcytosine; d = 2'-deoxy (DNA)

Tested on: GRN mRNA
Experiment: GRN mRNA qPCR in SK-N-AS cells transfected with ASOs
Assay type: cell-based, human
Conditions: SK-N-AS; for 120 nM FC (GRN mRNA) / hGRN mRNA FC: 120 nM
Procedure, shortened: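 Human neuroblastoma SK-N-AS cells transfected with ASOs at increasing concentrations (20 to 160 nM in initial titrations); GRN mRNA quantified by qPCR after 48 hours. Normalized to GAPDH and PPIA, fold change relative to steric non-targeting control ASO(s) (sNTC/CO-1589, with CO-3772 and CO-1929 in some series).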

[1] = Table 12, normalized to CO-1589
[2] = Table 11, 48 hours, normalized to CO-1589
[3] = Table 9, 48 hours post-transfection, normalized to CO-1589
[4] = Table 13, normalized to CO-1589
[5] = Table 3, normalized to CO-3772 and CO-1589 (sNTC1)
[6] = Table 4, normalized to CO-3772 and CO-1589 (sNTC1)
[7] = Table 7, normalized to CO-1589 (sNTC1)
[8] = Table 10, 48 hours, normalized to CO-1589

Substance: CO-6386: ASO based on parent ASO CO-3462 (antisense eG*e[5mC]*eG*eA*eG*e[5mC]*e[5mC]*eA*eG*e[5mC]*eT*e[5mC]*eA*eG*eT*eA*eG*e[5mC]*eT*e[5mC])
- 30 nM FC (GRN mRNA) [1]: 1.2 FC
- 60 nM FC (GRN mRNA) [1]: 0.9 FC
- 120 nM FC (GRN mRNA) [1]: 1.1 FC

Substance: CO-6383: ASO based on parent ASO CO-3462 (antisense eT*eA*eG*eG*eA*dG*dA*dA*dT*d[5mC]*dG*d[5mC]*dT*dT*dT*eG*eG*eG*eA*eG)
- 30 nM FC (GRN mRNA) [1]: 1.2 FC
- 60 nM FC (GRN mRNA) [1]: 1.0 FC
- 120 nM FC (GRN mRNA) [1]: 1.2 FC

Substance: CO-6445: ASO designed to target an intragenic enhancer RNA (eRNA) (eG*eT*eG*eG*eG*eA*eA*eG*eT*eA*eT*eG*eG*e[5mC]*eT*eG*e[5mC]*eT*eG*e[5mC])
- hGRN mRNA FC [2]: 1.3 FC

Substance: CO-4599: ASO designed to target intergenic enhancers (eRNA) (antisense eG*eG*e[5mC]*e[5mC]*eA*eA*e[5mC]*eT*eA*eT*e[5mC]*eA*eG*e[5mC]*eT*eT*eT*e[5mC]*e[5mC]*e[5mC])
- hGRN mRNA FC [3]: 1.0 FC

Substance: CO-6396: ASO based on parent ASO CO-3462 (antisense eT*eA*eG*lG*eA*eG*eA*lA*eT*e[5mC]*eG*l[5mC]*eT*eT*eT*lG*eG*eG*eA*eG)
- 30 nM FC (GRN mRNA) [1]: 1.4 FC
- 60 nM FC (GRN mRNA) [1]: 1.9 FC
- 120 nM FC (GRN mRNA) [1]: 1.9 FC

Substance: CO-6521: ASO based on parent ASO CO-3462 (antisense eT*eA*eG*eG*eA*eG*eA*eA*eT*e[5mC]eGe[5mC]eTeTeTeGeGeG*eA*eG)
- 30 nM FC (GRN mRNA) [1]: 1.1 FC
- 60 nM FC (GRN mRNA) [1]: 1.2 FC
- 120 nM FC (GRN mRNA) [1]: 1.1 FC

Substance: CO-6415: ASO based on parent ASOs CO-4363 and CO-4364 (antisense eG*eG*eA*l[5mC]*eT*eT*lG*eG*eG*lA*eG*eT*lG*eG*eT*lG*eA*e[5mC]*lT*eG*eA)
- 30 nM FC (GRN mRNA) [4]: 1.3 FC
- 60 nM FC (GRN mRNA) [4]: 1.6 FC
- 120 nM FC (GRN mRNA) [4]: 1.6 FC

Substance: CO-6454: ASO designed to target an intragenic enhancer RNA (eRNA) (e[5mC]*e[5mC]*eA*eA*eG*eT*eG*eT*eA*eG*eG*eA*eA*eA*eA*eA*eG*eT*eT*eT)
- hGRN mRNA FC [2]: 1.0 FC

Substance: CO-6433: ASO designed to target an intragenic enhancer RNA (eRNA) (eG*e[5mC]*eA*e[5mC]*eT*eG*e[5mC]*eT*eG*e[5mC]*e[5mC]*e[5mC]*e[5mC]*e[5mC]*eA*eA*eG*eA*e[5mC]*eA)
- hGRN mRNA FC [2]: 0.9 FC

Substance: CO-4355: LNA/PS modified ASO based on CO-3423 (antisense eG*eG*lA*e[5mC]*lT*eT*lG*eG*lG*eA*lG*eT*lG*eG*lT*eG*lA*e[5mC]*eT*eG)
- 30 nM FC (GRN mRNA) [5]: 1.6 FC
- 60 nM FC (GRN mRNA) [5]: 1.8 FC
- 120 nM FC (GRN mRNA) [5]: 1.9 FC

Substance: CO-6448: ASO designed to target an intragenic enhancer RNA (eRNA) (eT*e[5mC]*e[5mC]*e[5mC]*eG*eG*eT*eG*e[5mC]*e[5mC]*e[5mC]*eT*eG*eA*eT*eG*eG*eT*eT*e[5mC])
- hGRN mRNA FC [2]: 1.1 FC

Substance: CO-6438: ASO designed to target an intragenic enhancer RNA (eRNA) (e[5mC]*eT*eA*e[5mC]*eT*eG*eA*eG*e[5mC]*e[5mC]*eT*eG*eG*eA*eA*eG*eT*eG*eA*e[5mC])
- hGRN mRNA FC [2]: 1.2 FC

Substance: CO-4364: longer ASO based on CO-3423 (antisense eG*eG*eA*e[5mC]*eT*eT*eG*eG*eG*eA*eG*eT*eG*eG*eT*eG*eA*e[5mC]*eT*eG*eA*eA*e[5mC])
- 30 nM FC (GRN mRNA) [6]: 1.1 FC
- 60 nM FC (GRN mRNA) [6]: 1.3 FC
- 120 nM FC (GRN mRNA) [6]: 1.6 FC
- 7.5 nM FC (GRN mRNA) [7]: 1.1 FC
- 13 nM FC (GRN mRNA) (Table 7, 13 nM, normalized to CO-1589 (sNTC1)): 1.2 FC
- 30 nM FC (GRN mRNA) [7]: 1.7 FC
- 60 nM FC (GRN mRNA) [7]: 2.1 FC
- 120 nM FC (GRN mRNA) [7]: 1.9 FC
- 150 nM FC (GRN mRNA) (Table 7, 150 nM, normalized to CO-1589 (sNTC1)): 2.3 FC
- 30 nM FC (GRN mRNA) [4]: 1.1 FC
- 60 nM FC (GRN mRNA) [4]: 1.5 FC
- 120 nM FC (GRN mRNA) [4]: 1.6 FC

Substance: CO-6518: ASO based on parent ASO CO-3462 (antisense eT*eA*eG*eGeAeGeAeAeTe[5mC]eGe[5mC]eTeTeTeGeGeG*eA*eG)
- 30 nM FC (GRN mRNA) [1]: 1.2 FC
- 60 nM FC (GRN mRNA) [1]: 1.3 FC
- 120 nM FC (GRN mRNA) [1]: 0.9 FC

Substance: CO-6431: ASO designed to target an intragenic enhancer RNA (eRNA) (eA*e[5mC]*eG*eG*eA*e[5mC]*e[5mC]*eT*e[5mC]*e[5mC]*eT*e[5mC]*eA*e[5mC]*eT*eA*eA*eG*e[5mC]*eT)
- hGRN mRNA FC [2]: 0.8 FC

Substance: CO-6428: ASO based on parent ASOs CO-4363 and CO-4364 (eG*eG*eG*eA*e[5mC]*eT*eT*eG*eG*eG*eA*eG*eT*eG*eG*eT*eG*eA*e[5mC]*eT*eG*eA*eA*e[5mC]*e[5mC]*eT)
- 30 nM FC (GRN mRNA) [4]: 1.1 FC
- 60 nM FC (GRN mRNA) [4]: 1.4 FC
- 120 nM FC (GRN mRNA) [4]: 1.0 FC

Substance: CO-6408: ASO based on parent ASO CO-3462 (antisense eT*eA*eG*eGeAeGeA*eA*eT*e[5mC]*eG*e[5mC]*eT*eTeTeGeG*eG*eA*eG)
- 30 nM FC (GRN mRNA) [1]: 1.0 FC
- 60 nM FC (GRN mRNA) [1]: 1.1 FC
- 120 nM FC (GRN mRNA) [1]: 1.5 FC

Substance: CO-6429: ASO based on parent ASOs CO-4363 and CO-4364 (eA*eG*eG*eG*eA*e[5mC]*eT*eT*eG*eG*eG*eA*eG*eT*eG*eG*eT*eG*eA*e[5mC]*eT*eG*eA*eA*e[5mC]*e[5mC])
- 30 nM FC (GRN mRNA) [4]: 1.0 FC
- 60 nM FC (GRN mRNA) [4]: 1.5 FC
- 120 nM FC (GRN mRNA) [4]: 1.4 FC

Substance: CO-6399: ASO based on parent ASO CO-3462 (antisense eG*eT*eA*eG*eG*eA*dG*dA*dA*dT*d[5mC]*dG*d[5mC]*dT*dT*dT*eG*eG*eG*eA*eG*e[5mC])
- 30 nM FC (GRN mRNA) [1]: 1.3 FC
- 60 nM FC (GRN mRNA) [1]: 1.6 FC
- 120 nM FC (GRN mRNA) [1]: 1.9 FC

Substance: CO-4636: ASO designed to target intergenic enhancers (eRNA) (antisense eG*eG*e[5mC]*eA*eA*eT*eT*eA*e[5mC]*eA*eT*eA*e[5mC]*eA*eT*eG*eA*eG*eG*eA)
- hGRN mRNA FC [3]: 0.9 FC

Substance: CO-4630: ASO designed to target intergenic enhancers (eRNA) (antisense eG*eT*e[5mC]*eT*eT*e[5mC]*eA*eA*eG*eA*eA*e[5mC]*eT*eT*eT*eA*e[5mC]*e[5mC]*eG*eA)
- hGRN mRNA FC [3]: 1.0 FC

Substance: CO-4637: ASO designed to target intergenic enhancers (eRNA) (antisense eT*eA*eA*eG*eG*eT*eG*eT*eA*eG*eG*eA*e[5mC]*eA*eG*eT*e[5mC]*eT*eG*eA)
- hit identification (GRN mRNA dose escalation) (3.75 nM to 120 nM, 48 hours): initial hits
- hGRN mRNA FC [3]: 0.9 FC
- 3.75 nM FC (GRN mRNA) (Table 10, 3.75 nM, 48 hours, normalized to CO-1589): 1.1 FC
- 7.5 nM FC (GRN mRNA) [8]: 1.1 FC
- 15 nM FC (GRN mRNA) (Table 10, 15 nM, 48 hours, normalized to CO-1589): 1.2 FC
- 30 nM FC (GRN mRNA) [8]: 1.1 FC
- 60 nM FC (GRN mRNA) [8]: 1.2 FC
- 120 nM FC (GRN mRNA) [8]: 1.3 FC

Substance: CO-6413: ASO based on parent ASOs CO-4363 and CO-4364 (antisense eG*eG*eA*e[5mC]*eT*dT*dG*dG*eG*dA*dG*dT*eG*dG*dT*dG*eA*e[5mC]*eT*eG*eA)
- 30 nM FC (GRN mRNA) [4]: 1.0 FC
- 60 nM FC (GRN mRNA) [4]: 0.6 FC
- 120 nM FC (GRN mRNA) [4]: 0.7 FC

Substance: CO-4642: ASO designed to target intergenic enhancers (eRNA) (antisense eG*eG*e[5mC]*eT*eG*e[5mC]*eA*eG*eA*eT*e[5mC]*eT*e[5mC]*eT*eA*eT*eA*eT*e[5mC]*eA)
- hGRN mRNA FC [3]: 1.0 FC

Substance: CO-6409: ASO based on parent ASO CO-3462 (antisense eT*eA*eGeG*eA*eGeA*eA*eTe[5mC]*eG*e[5mC]eT*eT*eTeG*eG*eGeA*eG)
- 30 nM FC (GRN mRNA) [1]: 1.1 FC
- 60 nM FC (GRN mRNA) [1]: 1.1 FC
- 120 nM FC (GRN mRNA) [1]: 1.5 FC

Substance: CO-4624: ASO designed to target intergenic enhancers (eRNA) (antisense eG*eT*e[5mC]*eA*eG*eA*e[5mC]*eT*eG*eT*e[5mC]*e[5mC]*eT*eA*e[5mC]*eA*e[5mC]*e[5mC]*eT*eT)
- hGRN mRNA FC [3]: 1.3 FC

Substance: CO-6417: ASO based on parent ASOs CO-4363 and CO-4364 (eG*eG*eA*e[5mC]*lT*eT*eG*eG*lG*eA*eG*eT*lG*eG*eT*eG*lA*e[5mC]*eT*eG*eA)
- 30 nM FC (GRN mRNA) [4]: 1.4 FC
- 60 nM FC (GRN mRNA) [4]: 2.3 FC
- 120 nM FC (GRN mRNA) [4]: 2.8 FC
